Drawing on US20210221785A1, “AMINO-PYRIMIDONYL DERIVATIVES, A PROCESS FOR THEIR PREPARATION AND PHARMACEUTICAL COMPOSITIONS CONTAINING THEM” (LES LABORATOIRES SERVIER, priority 2018, published 2021), this text covers IC50 for 21 compounds.

Experiment [1] deals with T1, His-His-USP7 (aa208-560, |C315A|) (Homo sapiens, UniProt Q93009, C315A).
T1 construct: His-His-USP7 (aa208-560, |C315A|); His-His (N)
The experiment in a line: Evaluation of the inhibition of USP7 by the Fluorescence Intensity (FLINT) readings. The format is biochemical. The settings on record: 0.25 nM His-His-USP7, compound incubated 60 minutes at 30° C., 500 nM Ubiquitin-Rhodamine-110 substrate; 50% reduction in kinetic rate. The gist of the method: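 0.25 nM His-His-USP7 (aa208–560, C315A) preincubated 60 min at 30 °C with compound in 100 mM Bicine pH 8.0, 0.01% Triton X-100, 1 mM TCEP, 10% DMSO. Reaction started with 500 nM ubiquitin-rhodamine-110 and fluorescence (Ex485/Em535) read every 3 min for 21 min. IC50 derived from kinetic-rate reduction over an 11-point curve, 4-parameter fit.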

Experiment [2] concerns Z138 mantle cell lymphoma tumour cell lines. Description: In vitro cytotoxicity, MTT assay. The settings on record: Homo sapiens, Z-138, 96 h, Z138 cells exposed to the test compounds for 96 hours; cell viability vs DMSO treated cells. The format is cell-based. The protocol: The cytotoxicity studies were evaluated by MTT [3-(4,5-dimethylthiazol-2-yl)-2,5-diphenyltetrazolium bromide] assay and carried out on Z138 mantle cell lymphoma tumour cell lines. The cells are distributed onto microplates and exposed to the test compounds for 96 hours. MTT is then added for 4 hours and converted by NAD(P)H-dependent cellular oxidoreductase enzymes in formazan, which has a purple color. The viable cell number is proportional to the production of formuan salts and cell viability can be quantified by the absorbance of the solution at 540 nm with a speetrophotometer (Carmichael et al., Cancer Res. 1987, 47, 936-942).

T1 sequence (Q93009 208-560 C315A): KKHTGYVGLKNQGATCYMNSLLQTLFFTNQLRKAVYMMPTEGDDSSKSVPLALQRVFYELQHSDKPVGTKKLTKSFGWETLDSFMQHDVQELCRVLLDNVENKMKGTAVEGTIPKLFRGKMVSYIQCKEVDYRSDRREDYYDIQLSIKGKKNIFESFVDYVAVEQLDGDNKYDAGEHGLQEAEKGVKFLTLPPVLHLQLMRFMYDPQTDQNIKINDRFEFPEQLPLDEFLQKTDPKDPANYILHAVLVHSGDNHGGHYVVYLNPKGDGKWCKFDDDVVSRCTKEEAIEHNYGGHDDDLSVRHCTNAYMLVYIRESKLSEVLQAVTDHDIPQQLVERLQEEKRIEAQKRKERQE

Consider `Nc1c(Oc2ccc3c(c2)CNC3)ncn(CC2(O)CCN(C(=O)[C@@H]3CCC(F)(F)C[C@H]3c3ccccc3)CC2)c1=O` [Example 32, 5-amino-3-({1-[(1R,2R)-4,4-difluoro-2-phenylcyclohexane-1-carbonyl]-4-hydroxypiperidin-4-yl}methyl)-6-[(2,3-dihydro-1H-isoindol-5-yl)oxy]pyrimidin-4(3H)-one], for which the figures for the IC50 in experiment [1] and in experiment [2] were 32 nM and 0.896 µM, respectively.
Taken in the same sequence, the figures for `Nc1c(Oc2ccc(OCCO)cc2)ncn(CC2(O)CCN(C(=O)[C@@H]3CCC(F)(F)C[C@H]3c3ccccc3)CC2)c1=O` [Example 33, 5-amino-3-({1-[(1R,2R)-4,4-difluoro-2-phenylcyclohexane-1-carbonyl]-4-hydroxypiperidin-4-yl}methyl)-6-[4-(2-hydroxyethoxy)phenoxy]pyrimidin-4(3H)-one] were 45.9 nM and 0.0646 µM.
On to `Nc1c(Oc2ccc(C3CCCN3)cc2)ncn(CC2(O)CCN(C(=O)[C@@H]3CCC(F)(F)C[C@H]3c3ccccc3)CC2)c1=O` (stereo partly drawn) [Example 34, 5-amino-3({1-[(1R,2R)-4,4-difluoro-2-phenylcyclohexane-1-carbonyl]-4-hydroxypiperidin-4-yl}methyl)-6-[4-(pyrrolidin-2-yl)phenoxy]pyrimidin-4(3H)-one], for which the IC50 in experiment [1] stood at 10.8 nM; in experiment [2], 0.52 µM.
The like results for `Nc1c(Oc2ccc3cn[nH]c3c2)ncn(CC2(O)CCN(C(=O)[C@@H]3CCC(F)(F)C[C@H]3c3ccccc3)CC2)c1=O` [Example 35, 5-amino-3-({1-[(1R,2R)-4,4-difluoro-2-phenylcyclohexane-1-carbonyl]-4-hydroypiperidin-4-yl}methyl)-6-[(1H-indazol-6-yl)oxy]pyrimidin-4(3H)-one] were, in that order, 34.2 nM and 0.081 µM.
Turning to `Nc1c(Oc2ccc(CCO)cc2)ncn(CC2(O)CCN(C(=O)[C@@H]3CCC(F)(F)C[C@H]3c3ccccc3)CC2)c1=O` [Example 36, 5-amino-3-({1-[(1R,2R)-4,4-difluoro-2-phenylcyclohexane-1-carbonyl]-4-hydroxypiperidin-4-}methyl)-6-[4-(2-hydroxyethyl)phenoxy]pyrimdin-4(3H)-one], the IC50 in experiment [1] worked out at 29 nM; in experiment [2], 0.035 µM.
The like results for `Nc1c(Oc2ccc(CC(F)F)cc2)ncn(CC2(O)CCN(C(=O)[C@@H]3CCC(F)(F)C[C@H]3c3ccccc3)CC2)c1=O` [Example 38, 5-amino-6-[4-(2,2-difluoroethyl)phenoxy]-3-({1-[(1R,2R)-4,4-difluoro-2-phenylcyclohexane-1-carbonyl]-4-hydroxypiperidin-4-yl}methyl)pyrimidin-4(3H)-one] were, in that order, 63.9 nM and 0.128 µM.
The like results for `Nc1c(Oc2ccc(F)c(O)c2)ncn(CC2(O)CCN(C(=O)[C@@H]3CCC(F)(F)C[C@H]3c3ccccc3)CC2)c1=O` [Example 41, 5-amino-3-({1-[(1R,2R)-4,4-difluoro-2-phenylcyclohexane-1-carbonyl]-4-hydroxypiperidin-4-yl}methyl)-6-(4-fluoro-3-hydroxyphenoxy)pyrimidin-4(3H)-one] were, in that order, 42 nM and 0.0096 µM.
Taken in the same sequence, the figures for `CCc1cc(Oc2ncn(CC3(O)CCN(C(=O)[C@@H]4CCC(F)(F)C[C@H]4c4ccccc4)CC3)c(=O)c2N)ccc1Cl` [Example 42, 5-amino-6-(4-chloro-3-ethylphenoxy)-3-({1-[(1R,2R)-4,4-difluoro-2-phenylcyclohexane-1-carbonyl]-4-hydroxypiperidin-4-yl}methyl)pyrimidin-4(3H)-one] were 89.7 nM and 0.169 µM.
As for `Nc1c(Oc2ccc(C=O)cc2)ncn(CC2(O)CCN(C(=O)[C@@H]3CCC(F)(F)C[C@H]3c3ccccc3)CC2)c1=O` [Example 44], the half-inhibitory concentration (IC50) in experiment [1] was 38.7 nM; in experiment [2], 0.0736 µM.
The like results for `Nc1c(Oc2ccc(F)cc2)ncn(CC2(O)CCN(C(=O)[C@@H]3CCC(F)(F)C[C@H]3c3ccccc3)CC2(F)F)c1=O` (stereo partly drawn) [Example 45, 5-amino-3-({1-[(1R,2R)-4,4-difluoro-2-phenylcyclohexane-1-carbonyl]-3,3-difluoro-4-hydroxypiperidin-4-yl}methyl)-6-(4-fluorophenoxy)pyrimidin-4(3H)-one] were, in that order, 57 nM and 0.115 µM.
For the compound `Nc1c(Oc2ccc3c(c2)CC(O)C3)ncn(CC2(O)CCN(C(=O)[C@@H]3CCC(F)(F)C[C@H]3c3ccccc3)CC2)c1=O` (stereo partly drawn) [Example 48, 5-amino-3-({1-[(1R,2R)-4,4-difluoro-2-phenylcyclohexane-1-carbonyl]-4-hydroxypiperidin-4-yl}methyl)-6-[(2-hydroxy-2,3-dihydro-1H-inden-5-yl)oxy]pyrimidin-4(3H)-one], the figures for the IC50 in experiment [1] and in experiment [2] were 62 nM and 0.072 µM, respectively.
Regarding `CCC(N)c1ccc(Oc2ncn(CC3(O)CCN(C(=O)[C@@H]4CCC(F)(F)C[C@H]4c4ccccc4)CC3)c(=O)c2N)cc1` (stereo partly drawn) [Example 56, 5-amino-6-[4-(1-aminopropyl)phenoxy]-3-({1-[(1R,2R)-4,4-difluoro-2-phenylcyclohexane-1-carbonyl]-4-hydroxypiperidin-4-yl}methyl)pyrimidin-4(3H)-one], the figures for the IC50 in experiment [1] and in experiment [2] were 15 nM and 0.539 µM, respectively.
For the compound `NCc1ccc(Oc2ncn(CC3(O)CCN(C(=O)[C@@H]4CCC(F)(F)C[C@H]4c4ccccc4)CC3)c(=O)c2N)cc1` [Example 59, 5-amino-6-[4-(aminomethyl)phenoxy]-3-({1-[(1R,2R)-4,4-difluoro-2-phenylcyclohexane-1-carbonyl]-4-hydroxypiperidin-4-yl}methyl)pyrimidin-4(3H)-one], the IC50 in experiment [1] worked out at 4.2 nM; in experiment [2] it was 0.064 µM.
Consider `NCc1cccc(Oc2ncn(CC3(O)CCN(C(=O)[C@@H]4CCC(F)(F)C[C@H]4c4ccccc4)CC3)c(=O)c2N)c1` [Example 61, 5-amino-6-[3-(aminomethyl)phenoxy]-3-({1-[(1R,2R)-4,4-difluoro-2-phenylcyclohexane-1-carbonyl]-4-hydroxypiperidin-4-hydroxypiperidin-4-yl}methyl)pyrimidin-4(3H)-one], for which the IC50 in experiment [1] was determined as 9.8 nM; in experiment [2], 0.028 µM.
Turning to `Nc1c(Oc2cccc(O)c2)ncn(CC2(O)CCN(C(=O)[C@@H]3CCC(F)(F)C[C@H]3c3ccccc3)CC2)c1=O` [Example 64, 5-amino-3-({1-[(1R,2R)-4,4-difluoro-2-phenylcyclohexnne-1-carbonyl]-4-hydroxypiperidin-4-yl}methyl)-6-(3-hydroxyphenoxy)pyrimidin-4(3H)-one], the IC50 in experiment [1] came to 21 nM; in experiment [2] it was 0.014 µM.
With `NCc1ccc(Oc2ncn(CC3(O)CCN(C(=O)[C@@H]4CCC(F)(F)C[C@H]4c4ccccc4)CC3)c(=O)c2N)cc1F` [Example 65, 5-amino-6-[4-(aminomethyl)-3-fluorophenoxy]-3-({1-[(1R,2R)-4,4-difluoro-2-phenylcyclohexane-1-carbonyl]-4-hydroxypiperidin-4-yl}methyl)pyrimidin-4(3H)-one], the results for the IC50 in experiment [1] and in experiment [2] were 10 nM and 0.386 µM, respectively.
With `NCc1ccc(Oc2ncn(CC3(O)CCN(C(=O)[C@@H]4CCC(F)(F)C[C@H]4c4ccccc4)CC3)c(=O)c2N)cc1Cl` [Example 66, 5-amino-6-[4-(aminomethyl)-3-chlorophenoxy]-3-({1-[(1R,2R)-4,4-difluoro-2-phenylcyclohexane-1-carbonyl]-4-hydroxypiperidin-4-yl}methyl)pyrimidin-4(3H)-one], the results for the IC50 in experiment [1] and in experiment [2] were 11 nM and 0.301 µM, respectively.
Regarding `NC(=O)CCc1ccc(Oc2ncn(CC3(O)CCN(C(=O)[C@@H]4CCC(F)(F)C[C@H]4c4ccccc4)CC3)c(=O)c2N)cc1` [Example 67, 3-(4-{[5-amino-1-({1-[(1R,2R)-4,4-difluoro-2-phenylcyclohexane-1-carbonyl]-4-hydroxypiperidin-4-yl}methyl)-6-oxo-1,6-dihydropyrimidin-4-yl]oxy}phenyl)propanamide], the results for the IC50 in experiment [1] and in experiment [2] were 75 nM and 0.668 µM, respectively.
As for `NCCCc1ccc(Oc2ncn(CC3(O)CCN(C(=O)[C@@H]4CCC(F)(F)C[C@H]4c4ccccc4)CC3)c(=O)c2N)cc1` [Example 68, 5-amino-6-[4-(3-aminopropyl)phenoxy]-3-([1-[(1R,2R)-4,4-difluoro-2-phenylcyclohexane-1-carbonyl]-4-hydroxypiperidin-4-yl]methyl)pyrimidin-4(3H)-one], the IC50 was 39 nM in experiment [1] and 0.454 µM in experiment [2].
For the compound `Nc1c(Oc2ccc(CNCC(F)(F)F)cc2)ncn(CC2(O)CCN(C(=O)[C@@H]3CCC(F)(F)C[C@H]3c3ccccc3)CC2)c1=O` [Example 73, 5-amino-3-({1-[(1R,2R)-4,4-difluoro-2-phenylcyclohexane-1-carbonyl]-4-hydroxypiperidin-4-yl}methyl)-6-(4-[[(2,2,2-trifluoromethyl)amino]methyl]phenoxy)pyrimidin-4(3H)-one], the IC50 in experiment [1] was 113 nM; in experiment [2] it was 0.564 µM.
As for `CC(C)(C)NCc1ccc(Oc2ncn(CC3(O)CCN(C(=O)[C@@H]4CCC(F)(F)C[C@H]4c4ccccc4)CC3)c(=O)c2N)cc1` [Example 75, 5-amino-6-{4-[(tert-butylamino)methyl]phenoxy}-3-({1-[(1R,2R)-4,4-difluoro-2-phenylcyclohexane-1-carbonyl]-4-hydroxypiperidin-4-yl}methyl)pyrimidin-4(3H)-one], the IC50 in experiment [1] was 10 nM; in experiment [2], 0.184 µM.

Usually IC50 stands for the concentration at which inhibition is half-maximal. Low readings indicate greater potency in that assay, high ones weaker potency in that assay.
